The text below walks through data of patent publication US20230322846A9, “NEUROACTIVE STEROIDS AND THEIR METHODS OF USE” (SAGE THERAPEUTICS, INC., priority 2018, published 2023).

Molecules are shown by their SMILES.

This assay concerns the target [35S]-TBPS binding, rat brain cortical membranes. The experiment in a line: Steroid inhibition of [35S]-TBPS binding. The note with it: 3 nM [35S]-TBPS, in the presence of 5 mM GABA. In short, it runs like this:
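In the presence of […], compounds (DMSO 0.5% final) competed with 3 nM [35S]-TBPS for Sprague-Dawley rat cortical membranes, pH 7.4 phosphate buffer, 90 min, room temperature. Filtration and scintillation counting; specific binding defined by […]; IC50 and maximal inhibition fitted per experiment, averaged as mean ± SEM.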

For `COC[C@@]1(O)CC[C@@]2(C)[C@H](CC[C@@H]3[C@@H]2CC[C@@]2(C)[C@H]3CC[C@]2(O)[C@@H](C)Cn2cc(C#N)cn2)C1` [Example 351, 1-((S)-2-((3R,5R,8R,9S,10S,13S,14S,17S)-3,17-dihydroxy-3-(methoxymethyl)-10,13-dimethylhexadecahydro-1H-cyclopenta[a]phenanthren-17-yl)propyl)-1H-pyrazole-4-carbonitrile], the IC50 (as a rule, the midpoint of a concentration-inhibition curve) fell in the range of 1000 to 10000 nM.
With `C[C@H](Cn1ccnn1)[C@H]1CC[C@H]2[C@@H]3CC[C@H]4C[C@](C)(O)CC[C@@H]4[C@H]3CC[C@]12C` [Example 60, (3R,5S,8R,9R,10S,13S,14S,17R)-17-((S)-1-(1H-1,2,3-triazol-1-yl)propan-2-yl)-3,13-dimethylhexadecahydro-1H-cyclopenta[a]phenanthren-3-ol], the IC50 is 100 to 1000 nM.
Then `CC[C@@]1(O)CC[C@H]2[C@@H](CC[C@@H]3[C@@H]2CC[C@]2(C)[C@@H]([C@@H](C)Cn4nnc(C)n4)CC[C@@H]32)C1` [Example 333, (3R,5S,8R,9R,10S,13S,14S,17R)-3-ethyl-13-methyl-17-((R)-1-(5-methyl-2H-tetrazol-2-yl)propan-2-yl)hexadecahydro-1H-cyclopenta[a]phenanthren-3-ol], with 100 to 1000 nM; and `CCOC[C@@]1(O)CC[C@H]2[C@H](CC[C@@H]3[C@@H]2CC[C@]2(C)[C@@H]([C@H](C)Cc4cccc(C#N)c4)CC[C@@H]32)C1` [Example 403, 3-((R)-2-((3R,5R,8R,9R,10S,13R,14S,17R)-3-(ethoxymethyl)-3-hydroxy-13-methylhexadecahydro-1H-cyclopenta[a]phenanthren-17-yl)propyl)benzonitrile], with 100 to 1000 nM.
In the case of `C[C@H](N[C@@H](C)[C@H]1CC[C@H]2[C@@H]3CC[C@@H]4C[C@](C)(O)CC[C@@H]4[C@H]3CC[C@]12C)c1ccccc1` [Example 210], the IC50 lay within 1000 to 10000 nM.
In the case of `C[C@@]1(O)CC[C@H]2[C@H](CC[C@@H]3[C@@H]2CC[C@]2(C)[C@@H](CN4C(=O)CCC[C@@H]4c4ccccc4)CC[C@@H]32)C1` [Example 13, (R)-1-(((3R,5R,8R,9R,10S,13S,14S,17S)-3-hydroxy-3,13-dimethylhexadecahydro-1H-cyclopenta[a]phenanthren-17-yl)methyl)-6-phenylpiperidin-2-one], the IC50 was less than 100 nM.
Take `CCOC[C@@]1(O)CC[C@H]2[C@H](CC[C@@H]3[C@@H]2CC[C@]2(C)[C@@H]([C@H](C)Cc4cccc(C#N)n4)CC[C@@H]32)C1` [Example 412]: the IC50 was in the range of 100 to 1000 nM.
Turning to `CCOC[C@@]1(O)CC[C@H]2[C@H](CC[C@@H]3[C@@H]2CC[C@]2(C)[C@@H]([C@H](CC)Cn4nccc4C#N)CC[C@@H]32)C1` [Example 501, 1-((S)-2-((3R,5R,8R,9R,10S,13S,14S,17R)-3-(ethoxymethyl)-3-hydroxy-13-methylhexadecahydro-1H-cyclopenta[a]phenanthren-17-yl)butyl)-1H-pyrazole-5-carbonitrile], the IC50 is 100 to 1000 nM.
As for `C[C@H]([C@H]1CC[C@H]2[C@@H]3CC[C@@H]4C[C@](C)(O)CC[C@@H]4[C@H]3CC[C@]12C)n1ccnn1` [Example 159, (3R,5R,8R,9R,10S,13S,14S,17S)-17-((R)-1-(1H-1,2,3-triazol-1-yl)ethyl)-3,13-dimethylhexadecahydro-1H-cyclopenta[a]phenanthren-3-ol], the IC50 was no less than 10000 nM.
The value for `C[C@H](Cc1ncc(CO)s1)[C@H]1CC[C@H]2[C@@H]3CC[C@@H]4C[C@](C)(O)CC[C@@H]4[C@H]3CC[C@]12C` [Example 429] was less than 100 nM; that for `CC[C@@]1(O)CC[C@@]2(C)[C@H](CC[C@@H]3[C@@H]2CC[C@]2(C)[C@@H]([C@H](C)Cn4ccc(C#N)n4)CC[C@@H]32)C1` [Example 62, 1-((S)-2-((3R,5R,8R,9S,10S,13S,14S,17R)-3-ethyl-3-hydroxy-10,13-dimethylhexadecahydro-1H-cyclopenta[a]phenanthren-17-yl)propyl)-1H-pyrazole-3-carbonitrile] was less than 100 nM; that for `C[C@H](Nc1ccc(C#N)cc1)[C@H]1CC[C@H]2[C@@H]3CC[C@@H]4C[C@](C)(O)CC[C@@H]4[C@H]3CC[C@]12C` [Example 205] was 1000 to 10000 nM.
As to `COC[C@@]1(O)CC[C@H]2[C@H](CC[C@@H]3[C@@H]2CC[C@]2(C)[C@@H]([C@H](C)Nc4ccc(C#N)cc4)CC[C@@H]32)C1` [Example 257], the concentration for half-maximal inhibition (IC50) lay within 100 to 1000 nM.
As for `CCOC[C@@]1(O)CC[C@H]2[C@H](CC[C@@H]3[C@@H]2CC[C@]2(C)[C@@H]([C@@H](C)NS(=O)(=O)c4ccc(C#N)cn4)CC[C@@H]32)C1` [Example 73], the IC50 is less than 100 nM.
The value for `CCC[C@@]1(O)CC[C@H]2[C@H](CC[C@@H]3[C@@H]2CC[C@]2(C)[C@@H]([C@@H](C)Cn4nnc(C)n4)C(=O)C[C@@H]32)C1` [Example 364, (3R,5R,8R,9R,10S,13S,14S,17R)-3-hydroxy-13-methyl-17-((R)-1-(5-methyl-2H-tetrazol-2-yl)propan-2-yl)-3-propyltetradecahydro-1H-cyclopenta[a]phenanthren-16(2H)-one] was 100 to 1000 nM; that for `CC[C@@]1(O)CC[C@H]2[C@H](CC[C@@H]3[C@@H]2CC[C@]2(C)[C@@H]([C@@H](C)Cn4cc(C#N)cn4)CC[C@@H]32)C1` [Example 275, 1-((R)-2-((3R,5R,8R,9R,10S,13S,14S,17R)-3-ethyl-3-hydroxy-13-methylhexadecahydro-1H-cyclopenta[a]phenanthren-17-yl)propyl)-1H-pyrazole-4-carbonitrile] was less than 100 nM; that for `COc1cccc(C(=O)N[C@@H](C)[C@H]2CC[C@H]3[C@@H]4CC[C@@H]5C[C@](C)(O)CC[C@@H]5[C@H]4CC[C@]23C)c1` [Example 105] was 1000 to 10000 nM.
Then `CCC[C@@]1(O)CC[C@@]2(COC)[C@H](CC[C@H]3[C@@H]4CC[C@H]([C@@H](C)Cn5nnnc5C)[C@@]4(C)CC[C@@H]32)C1` [Example 321, (3R,5R,8S,9S,10R,13S,14S,17R)-10-(methoxymethyl)-13-methyl-17-((R)-1-(5-methyl-1H-tetrazol-1-yl)propan-2-yl)-3-propylhexadecahydro-1H-cyclopenta[a]phenanthren-3-ol], with less than 100 nM; and `C[C@@]1(O)CC[C@H]2[C@H](CC[C@@H]3[C@@H]2CC[C@]2(C)[C@@H]([C@H](C#N)Cn4cc(C#N)cn4)CC[C@@H]32)C1` [Example 355, 1-((S)-2-cyano-2-((3R,5R,8R,9R,10S,13S,14S,17R)-3-hydroxy-3,13-dimethylhexadecahydro-1H-cyclopenta[a]phenanthren-17-yl)ethyl)-1H-pyrazole-4-carbonitrile], with less than 100 nM; and `CCC[C@@]1(O)CC[C@@]2(C)[C@H](CC[C@@H]3[C@@H]2[C@H](O)C[C@]2(C)[C@@H]([C@@H](C)Cn4cc(C#N)cn4)CC[C@@H]32)C1` [Example 337, 1-((R)-2-((3R,5R,8S,9S,10S,11R,13S,14S,17R)-3,11-dihydroxy-10,13-dimethyl-3-propylhexadecahydro-1H-cyclopenta[a]phenanthren-17-yl)propyl)-1H-pyrazole-4-carbonitrile], with 100 to 1000 nM.
Turning to `COC[C@@]1(O)CC[C@H]2[C@H](CC[C@@H]3[C@@H]2CC[C@]2(C)[C@@H]([C@@H](C)n4cc(C#N)cn4)CC[C@@H]32)C1` [Example 150, 1-((R)-1-((3R, 5R, 8R, 9R, 10S, 135, 145, 17S)-3-hydroxy-3-(methoxymethyl)-13-methylhexadecahydro-1H-cyclopenta[a]phenanthren-17-yl)ethyl)-1H-pyrazole-4-carbonitrile], the IC50 was less than 100 nM.
Turning to `CCOC[C@@]1(O)CC[C@H]2[C@H](CC[C@@H]3[C@@H]2CC[C@]2(C)[C@@H]([C@@H](C)NS(=O)(=O)c4cccc(C#N)n4)CC[C@@H]32)C1` [Example 71], the IC50 was 100 to 1000 nM.
As for `CCOC[C@@]1(O)CC[C@H]2[C@H](CC[C@@H]3[C@@H]2CC[C@]2(C)[C@@H]([C@@H](C)Cn4nccc4C#N)CC[C@@H]32)C1` [Example 285, 1-((R)-2-((3R,5R,8R,9R,10S,13S,14S,17R)-3-(ethoxymethyl)-3-hydroxy-13-methylhexadecahydro-1H-cyclopenta[a]phenanthren-17-yl)propyl)-1H-pyrazole-5-carbonitrile], the IC50 is less than 100 nM.
For the compound `CN(C[C@H]1CC[C@H]2[C@@H]3CC[C@@H]4C[C@](C)(O)CC[C@@H]4[C@H]3CC[C@]12C)S(=O)(=O)c1ccccc1` [Example 5, N-(((3R,5R,8R,9R,10S,13S,14S,17S)-3-hydroxy-3,13-dimethylhexadecahydro-1H-cyclopenta[a]phenanthren-17-yl)methyl)-N-methylbenzenesulfonamide], the IC50 is less than 100 nM.
The value for `C[C@H]([C@H]1CC[C@H]2[C@@H]3CC[C@@H]4C[C@](C)(O)CC[C@@H]4[C@H]3CC[C@]12C)n1nccn1` [Example 158, (3R,5R,8R,9R,10S,13S,14S,17S)-17-((R)-1-(2H-1,2,3-triazol-2-yl)ethyl)-3,13-dimethylhexadecahydro-1H-cyclopenta[a]phenanthren-3-ol] was 100 to 1000 nM; that for `COC[C@@]1(O)CC[C@H]2[C@H](CC[C@@H]3[C@@H]2CC[C@]2(C)[C@@H]([C@@H](C)Cn4cc(C#N)cn4)CC[C@@H]32)C1` [Example 92, 1-((R)-2-((3R, 5R, 8R, 9R, 10S, 13S, 14S, 17R)-3-hydroxy-3-(methoxymethyl)-13-methylhexadecahydro-1H-cyclopenta[a]phenanthren-17-yl)propyl)-1H-pyrazole-4-carbonitrile] was less than 100 nM.
